From US20170065517A1, “COMPOSITIONS FOR […] AGENTS ACROSS THE ORAL MUCOSA AND METHODS OF USE THEREOF” (PARATEK PHARMACEUTICALS, INC., priority 2004, published 2017) come the findings set out here.

This data set in a line: Zolpidem membrane assay (lipid-coated dodecane membrane between donor and acceptor cell). It counts as in vitro ADME. The conditions noted are these: zolpidem tartrate solutions. The method, then: Topics Med. Chem., 1:277-351 (2001). This assay uses a lipid-coated membrane to predict lipid mucosal membrane penetration. The membrane apparatus consists of a dodecane membrane sandwiched between a donor and acceptor cell. The lipid-coated membrane is less porous then the mucous membrane of the oral cavity. Thus, the enhancement seen in the membrane assay is very likely to be magnified in vivo.
Membrane assays were performed using zolpidem tartrate solutions at a pH of 5.8, 6.8, and 7.8. The alkaline pH values of 7.8 were adjusted using freshly prepared 0.01 M sodium bicarbonate/sodium carbonate buffer solution. The acidic pH of 5.8 was achieved using a 0.01 M acetate buffer solution (a mixture of sodium acetate and acetic acid). The neutral pH of 6.8 was achieved by adding 0.01 M acetate solution to the sodium bicarbonate/sodium carbonate buffer solution. Permeation through the membrane was measured by determining the concentration of zolpidem in the acceptor cell and is expressed as Pc (effective permeability in centimeters per second).

With `Cc1ccc(-c2nc3ccc(C)cn3c2CC(=O)N(C)C)cc1` [zolpidem], the “increase of effective permeability (Pc)” value is reported as 129% (pH 7.8 relative to pH 5.8) and “more than 53%” (pH 7.8 relative to pH 6.8).
